For one data set, the system named is CCRF-CEM. In words: Antiproliferative activity against human CEM cells treated for 96 hrs. Format: functional, cell-based.
A further data set relates to L1210. In words: Antiproliferative activity against mouse L1210 cells treated for 48 hrs. Conditions: L1210, 48 h. Format: functional, cell-based.
Data set [1] has as its system HeLa. In words: Antiproliferative activity against human HeLa cells treated for 4 days. It counts as functional, cell-based. To be noted: 96 h.
A further data set has as its system Human alphaherpesvirus 3. As to the kind of experiment: Antiviral activity against VZV strain Oka bearing wild type thymidine kinase assessed as reduction in virus induced cytopathogenicity. It counts as functional, organism-based. In general terms: Cytopathic effects are the visible damage that an infection or toxin causes in cultured cells.
For a further data set, the system named is Escherichia coli. In words: Antimicrobial activity against Escherichia coli assessed as zone of inhibition. It counts as functional.
The next data set deals with Klebsiella pneumoniae. As to the kind of experiment: Antimicrobial activity against Klebsiella pneumoniae assessed as zone of inhibition. Format: functional.
Data set [2] can be described thus: Permeability of the compound across blood brain barrier by PAMPA. It counts as ADME, tissue-based. To be noted: read-out: logBB (converted). Background: PAMPA measures passive passage across an artificial lipid membrane.
The nature of data set [3]: Permeability across blood brain barrier assessed as central nervous system multi-parameter optimization score. Format: ADME, tissue-based.
Another data set deals with BV-2. In words: Anti-infalmmatory activity in LPS-induced NO production in mouse BV-2 microglial cells preincubated for 3 hrs followed by LPS addition measured after 24 hrs by NO assay kit. It counts as functional, cell-based.
A further data set concerns HUVEC. As to the kind of experiment: Antitubulin activity against HUVEC assessed as morphological changes of tube incubated for 6 hrs by inverted microscope. It counts as functional, cell-based. Conditions: Homo sapiens.
The next data set has as its system Fusarium solani. In words: Antifungal activity against Fusarium solani assessed as zone of inhibition. It counts as functional.
Another data set deals with Aspergillus niger. As to the kind of experiment: Antifungal activity against Aspergillus niger assessed as zone of inhibition. Format: functional.
In the next data set the test system is Staphylococcus aureus. In words: Antimicrobial activity against Staphylococcus aureus assessed as zone of inhibition at 100 uM. It counts as functional.
The subject of the next data set is Bacillus subtilis. As to the kind of experiment: Antimicrobial activity against Bacillus subtilis assessed as zone of inhibition at 100 uM. It counts as functional.
The next data set relates to Curvularia lunata. In words: Antifungal activity against Cochliobolus lunatus assessed as zone of inhibition. Format: functional.
The test system of a further data set is SARS-CoV. In words: Antiviral activity against SARS-CoV Live SARS-CoV assay and cytotoxicity assessed as reduction in viral cytopathic effect. It counts as functional, organism-based. Conditions: Severe acute respiratory syndrome-related coronavirus.
Another data set deals with Ebolavirus. As to the kind of experiment: Antiviral activity against Ebola virus pseudotyped infected in HEK293T cells assessed as reduction in viral cytopathic effect. It counts as functional, organism-based. To be noted: Orthoebolavirus, HEK-293T.
For data set [4], the target named is Cholinesterase (Equus caballus, UniProt P81908). As to the kind of experiment: Inhibition of horse serum BuChE preincubated for 5 mins followed by BuCh addition measured after 5 mins by Ellman's method. On the technique in general: DTNB colorimetry detects thiols as they appear.
Sequence of Cholinesterase (Equus caballus, UniProt P81908) (P81908 whole entry): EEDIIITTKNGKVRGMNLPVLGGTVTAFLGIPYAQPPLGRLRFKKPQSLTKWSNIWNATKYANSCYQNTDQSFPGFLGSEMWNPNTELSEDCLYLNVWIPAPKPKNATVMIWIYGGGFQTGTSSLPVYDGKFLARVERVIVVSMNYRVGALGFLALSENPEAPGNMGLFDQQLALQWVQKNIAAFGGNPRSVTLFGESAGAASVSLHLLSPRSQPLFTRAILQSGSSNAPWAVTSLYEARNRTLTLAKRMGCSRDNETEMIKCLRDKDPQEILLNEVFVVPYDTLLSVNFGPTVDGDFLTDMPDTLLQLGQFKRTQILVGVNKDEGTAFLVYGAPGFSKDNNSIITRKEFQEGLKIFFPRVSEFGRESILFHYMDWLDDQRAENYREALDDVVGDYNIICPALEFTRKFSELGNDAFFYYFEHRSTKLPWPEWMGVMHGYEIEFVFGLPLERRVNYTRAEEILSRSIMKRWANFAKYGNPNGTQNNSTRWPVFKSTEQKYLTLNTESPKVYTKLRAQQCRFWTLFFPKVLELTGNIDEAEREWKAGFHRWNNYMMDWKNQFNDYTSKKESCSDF
The target of data set [5] is T1, Cholinesterase (Homo sapiens, UniProt P06276). As to the kind of experiment: Inhibition of human serum BuChE preincubated for 5 mins followed by BuCh addition measured after 5 mins by Ellman's method.
T1 sequence (P06276 whole entry): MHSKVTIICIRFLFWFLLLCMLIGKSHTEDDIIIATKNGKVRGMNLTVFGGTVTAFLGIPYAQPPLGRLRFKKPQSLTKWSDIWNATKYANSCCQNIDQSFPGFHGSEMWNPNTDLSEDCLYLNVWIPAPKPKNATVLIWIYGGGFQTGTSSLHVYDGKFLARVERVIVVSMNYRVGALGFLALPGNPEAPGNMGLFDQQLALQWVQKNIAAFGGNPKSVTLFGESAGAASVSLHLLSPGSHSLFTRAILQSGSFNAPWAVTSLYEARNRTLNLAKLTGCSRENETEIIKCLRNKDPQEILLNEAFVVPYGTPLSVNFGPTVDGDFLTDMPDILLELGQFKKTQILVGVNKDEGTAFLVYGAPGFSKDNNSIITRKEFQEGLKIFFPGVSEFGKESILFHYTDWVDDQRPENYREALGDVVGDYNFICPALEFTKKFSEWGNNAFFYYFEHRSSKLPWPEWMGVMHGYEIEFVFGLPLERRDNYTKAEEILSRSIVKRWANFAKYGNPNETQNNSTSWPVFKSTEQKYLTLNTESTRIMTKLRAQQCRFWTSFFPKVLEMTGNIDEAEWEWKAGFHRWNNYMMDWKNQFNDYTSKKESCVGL
The target of the next data set is Acetylcholinesterase (Homo sapiens, UniProt P22303). In words: Inhibition of AChE (unknown origin) preincubated for 5 mins followed by […] measured after 5 mins by Ellman's method.
Sequence of Acetylcholinesterase (P22303 whole entry): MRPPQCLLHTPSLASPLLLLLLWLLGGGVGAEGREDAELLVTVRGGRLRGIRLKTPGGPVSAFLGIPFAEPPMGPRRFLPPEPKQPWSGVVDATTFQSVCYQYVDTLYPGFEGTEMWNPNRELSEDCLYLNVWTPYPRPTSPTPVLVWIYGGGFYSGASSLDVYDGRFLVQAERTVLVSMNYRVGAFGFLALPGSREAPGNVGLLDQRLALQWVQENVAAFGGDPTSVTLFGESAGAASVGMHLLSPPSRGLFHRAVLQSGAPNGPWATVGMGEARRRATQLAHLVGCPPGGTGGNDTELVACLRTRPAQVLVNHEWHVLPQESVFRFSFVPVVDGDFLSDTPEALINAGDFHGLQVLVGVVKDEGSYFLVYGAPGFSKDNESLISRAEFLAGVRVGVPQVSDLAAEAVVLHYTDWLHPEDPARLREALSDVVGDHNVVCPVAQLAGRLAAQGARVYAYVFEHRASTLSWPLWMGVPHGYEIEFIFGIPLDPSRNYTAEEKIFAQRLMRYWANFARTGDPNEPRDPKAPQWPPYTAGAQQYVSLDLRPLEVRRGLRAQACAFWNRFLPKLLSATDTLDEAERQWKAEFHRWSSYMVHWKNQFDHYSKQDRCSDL
The target of data set [6] is T1, Cholinesterase. As to the kind of experiment: Binding affinity to BuChE (unknown origin) assessed as inhibition constant.
The subject of the next data set is MDA-MB-231. As to the kind of experiment: Anticancer activity against human MDA-MB-231 cells. It counts as functional, cell-based.
The next data set has as its system A-375. In words: Anticancer activity against human A-375 cells. Format: functional, cell-based.
The target of data set [7] is Telomerase reverse transcriptase (Homo sapiens, UniProt O14746). As to the kind of experiment: Inhibition of telomerase (unknown origin).
Sequence of Telomerase reverse transcriptase (O14746 whole entry): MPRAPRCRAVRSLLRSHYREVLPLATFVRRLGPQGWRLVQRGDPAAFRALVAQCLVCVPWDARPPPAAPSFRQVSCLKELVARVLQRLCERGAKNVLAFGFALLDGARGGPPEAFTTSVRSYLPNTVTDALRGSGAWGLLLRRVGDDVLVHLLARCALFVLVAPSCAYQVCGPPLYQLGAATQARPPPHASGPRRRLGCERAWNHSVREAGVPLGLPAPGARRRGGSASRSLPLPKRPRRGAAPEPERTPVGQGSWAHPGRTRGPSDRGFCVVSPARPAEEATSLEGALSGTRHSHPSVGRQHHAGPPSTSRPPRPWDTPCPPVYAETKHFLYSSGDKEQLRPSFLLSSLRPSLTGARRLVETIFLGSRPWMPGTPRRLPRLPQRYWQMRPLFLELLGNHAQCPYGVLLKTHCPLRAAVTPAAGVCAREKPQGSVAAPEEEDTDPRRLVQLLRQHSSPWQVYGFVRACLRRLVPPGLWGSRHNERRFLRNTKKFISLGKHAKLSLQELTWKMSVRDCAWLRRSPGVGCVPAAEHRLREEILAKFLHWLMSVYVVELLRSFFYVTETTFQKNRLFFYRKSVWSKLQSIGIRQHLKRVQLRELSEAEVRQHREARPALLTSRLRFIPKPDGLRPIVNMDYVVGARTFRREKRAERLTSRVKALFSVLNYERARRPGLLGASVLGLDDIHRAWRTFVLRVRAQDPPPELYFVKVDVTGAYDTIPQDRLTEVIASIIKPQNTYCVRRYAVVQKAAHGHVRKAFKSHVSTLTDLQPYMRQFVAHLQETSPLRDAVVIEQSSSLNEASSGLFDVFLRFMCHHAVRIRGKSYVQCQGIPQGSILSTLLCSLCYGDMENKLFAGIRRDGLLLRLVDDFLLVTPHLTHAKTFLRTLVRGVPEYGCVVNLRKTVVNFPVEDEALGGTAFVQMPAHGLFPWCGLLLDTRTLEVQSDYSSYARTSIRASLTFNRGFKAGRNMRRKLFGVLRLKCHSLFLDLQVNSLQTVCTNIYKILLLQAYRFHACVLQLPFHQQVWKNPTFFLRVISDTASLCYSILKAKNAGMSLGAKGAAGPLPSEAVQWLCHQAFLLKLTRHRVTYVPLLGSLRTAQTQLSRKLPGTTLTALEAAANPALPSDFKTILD
In a further data set the test system is NCI-H1975. In words: Cytotoxicity against human NCI-H1975 cells expressing EGFR T790 mutant incubated for 72 hrs by MTT assay. It counts as functional, cell-based. Conditions: NCI-H1975, 72 h.
The subject of another data set is A549. In words: Cytotoxicity against human A549 cells expressing EGFR incubated for 72 hrs by MTT assay. It counts as functional, cell-based. Conditions: A549, 72 h.
The subject of another data set is A-431. In words: Cytotoxicity against human A431 cells expressing EGFR incubated for 72 hrs by MTT assay. It counts as functional, cell-based. To be noted: A-431, 72 h.
A further data set has as its system PC-3. As to the kind of experiment: Cytotoxicity against human PC-3 cells assessed as reduction in cell viability. Format: functional, cell-based.
Another data set has as its system HT-29. In words: Cytotoxicity against human HT-29 cells assessed as reduction in cell viability. Format: functional, cell-based.
A short description of data set [8]: Cytotoxicity against human SB2 cells assessed as reduction in cell viability. It counts as functional, cell-based.
Another data set concerns OVCAR-3. In words: Cytotoxicity against human OVCAR-3 cells assessed as reduction in cell viability. Format: functional, cell-based.
The test system of the next data set is SK-OV-3. As to the kind of experiment: Cytotoxicity against human SK-OV-3 cells assessed as reduction in cell viability. It counts as functional, cell-based.
The subject of another data set is MeWo. In words: Cytotoxicity against human MeWo cells assessed as reduction in cell viability. Format: functional, cell-based.
The subject of a further data set is PC-12. In words: Neuroprotection against H2O2-induced cell injury in rat PC-12 cells assessed as cell viability preincubated for 3 hrs followed by H2O2 addition measured after 5 hrs by MTT assay. It counts as functional. Conditions: time 8 hrs.
The subject of data set [9] is HeLa. As to the kind of experiment: Cytotoxicity against human HeLa cells. Conditions: pooled result: one value given for 5 cell lines, strains, targets or settings. It counts as functional, cell-based.
Data set [10] is described as follows: Cytotoxicity against human HO-8910 cells incubated for 48 hrs by MTT assay. Format: functional, cell-based. To be noted: HO-8910, 48 h.
In the next data set the test system is ES-2. As to the kind of experiment: Cytotoxicity against human ES2 cells incubated for 48 hrs by MTT assay. Format: functional, cell-based. To be noted: ES-2, 48 h.
Data set [11] can be described thus: Cytotoxicity against HBMSC cells incubated for 48 hrs by MTT assay. It counts as toxicity, cell-based. To be noted: human.
The next data set deals with K562. In words: Cytotoxicity against human K562 cells incubated for 48 hrs by MTT assay. Format: functional, cell-based. Conditions: K562, 48 h.
The next data set is filed under the species Homo sapiens. In words: Inhibition of PI3K (unknown origin) at 20 uM relative to control.

Molecules are shown by their SMILES.

For `CC(=O)OC[C@H]1O[C@@H](n2cc(/C(Cl)=C\S(=O)(=O)c3ccc(C)cc3)c(=O)[nH]c2=O)C[C@@H]1OC(C)=O`, the results for the IC50 in the data set on CCRF-CEM, in the data set with L1210 and in the data set with HeLa [1] were 11000 nM, 5600 nM and 23000 nM, respectively. Moreover, in the data set on Human alphaherpesvirus 3, the EC50 (in general, the concentration that produces a half-maximal response) worked out at 4000 nM.

With `O=C(N[C@H](CO)[C@H](O)c1ccc([N+](=O)[O-])cc1)C(Cl)Cl` [CHLORAMPHENICOL], the Activity in the data set on Escherichia coli and with Klebsiella pneumoniae was greater than 35 mm throughout.

For the compound `O=S(=O)(/C=C/c1ccc(O)c(O)c1)CCCC1CCCC1`, the Kp in data set [2] was 0.316. Besides, the Activity in data set [3] worked out at 4.36. Moreover, the midpoint of inhibition in the data set on BV-2, the IC50, lay at 1600 nM.

As for `COc1ccc(/C=C/S(=O)(=O)c2cc(OC)c(OC)c(OC)c2)cc1N`, the IC50 (usually the concentration at which inhibition is half-maximal) in the data set with HUVEC was 4250 nM.

For the compound `O=C(c1ccc(Cl)cc1)c1c[nH]cc1S(=O)(=O)c1n[nH]cc1-c1ccccc1`, the Activity in the data set on Fusarium solani is recorded as greater than 26 mm; in the data set on Aspergillus niger, greater than 26 mm; in the data set with Escherichia coli, greater than 20 mm; in the data set on Staphylococcus aureus it was greater than 25 mm; in the data set on Bacillus subtilis it was greater than 25 mm; with Curvularia lunata it was greater than 26 mm. Moreover, in the data set on Klebsiella pneumoniae, the Activity is given as greater than 20 mm.

For the compound `COCCN1CCN(C(=O)N[C@@H](Cc2ccccc2)C(=O)N[C@H](/C=C/S(=O)(=O)c2ccccc2)CCc2ccccc2)CC1`, the IC50 in the data set with SARS-CoV and in the data set with Ebolavirus was 0.04 nM in each case.

Take `COc1ccccc1/C=C/C=C(\Br)S(=O)(=O)F`: the IC50 was determined as 21 nM at Cholinesterase [4], 3620 nM on Cholinesterase [5] and 79 nM against Acetylcholinesterase. The Ki (in general, a measure of affinity in units of concentration, obtained from inhibition or displacement) at Cholinesterase [6] worked out at 29 nM.

`CN1CCN(C(=O)N[C@@H](Cc2ccccc2)C(=O)N[C@H](/C=C/S(=O)(=O)c2ccccc2)CCc2ccccc2)CC1` [K-777]: in the data set with Ebolavirus, the IC50 was 0.36 nM.

As to `CCCN1CCN(C(=O)N[C@@H](Cc2ccccc2)C(=O)N[C@H](/C=C/S(=O)(=O)c2ccccc2)CCc2ccccc2)CC1`, the half-inhibitory concentration (IC50) with SARS-CoV and in the data set with Ebolavirus was 0.04 nM each time.

Consider `CC(C)(C)N1CCN(C(=O)N[C@@H](Cc2ccccc2)C(=O)N[C@H](/C=C/S(=O)(=O)c2ccccc2)CCc2ccccc2)CC1`, for which the IC50 with SARS-CoV and in the data set with Ebolavirus was 0.04 nM each time.

As to `O=S(=O)(F)/C=C/C=C/c1ccc(/C=C/S(=O)(=O)F)cc1`, the IC50 is 3220 nM in the data set with MDA-MB-231, 1580 nM with A-375 and less than 1000 nM in data set [7].

For the compound `COc1cc(/C=C/S(=O)(=O)c2ccccc2)cc(OC)c1OC`, the results for the IC50 with NCI-H1975, in the data set with A549 and with A-431 were 30400 nM, 54600 nM and 33500 nM, respectively.

In the case of `C=C(CCCCCCCCCCCCCCCC)S(=O)(=O)CCC[N+](C)(C)C`, the half-inhibitory concentration (IC50) (with PC-3; with HT-29; in data set [8]; in the data set on OVCAR-3; in the data set on SK-OV-3; with MeWo) was 390 nM throughout.

Regarding `O=S(=O)(/C=C/c1ccc(O)c(O)c1)CCCc1ccccc1`, in the data set on PC-12, the Activity is recorded as 94.5%.

For the compound `COc1cc(OC)c(/C=C/S(=O)(=O)Cc2ccc(OC)c(NCC(=O)O)c2)c(OC)c1` [RIGOSERTIB SODIUM], in the data set on HeLa [9], half-maximal inhibition (IC50) required 10 nM.

For the compound `O=C(N[C@H](/C=C/S(=O)(=O)c1ccccc1)CCc1ccccc1)[C@H](Cc1ccccc1)NC(=O)N1CCN(c2ccccc2)CC1`, the IC50 in the data set with SARS-CoV and in the data set on Ebolavirus was 0.04 nM in each case.

As for `O=S(=O)(F)/C=C/c1ccc(-c2ccccc2)cc1`, in data set [7], the IC50 was less than 1000 nM.

With `O=C(c1ccc(Cl)cc1)c1c[nH]cc1S(=O)(=O)c1c(-c2ccc(Cl)cc2)noc1-c1ccccc1`, the Activity with Fusarium solani was greater than 26 mm; with Aspergillus niger, greater than 26 mm; in the data set on Escherichia coli, greater than 20 mm; with Staphylococcus aureus, greater than 25 mm; in the data set with Bacillus subtilis, greater than 25 mm; in the data set with Curvularia lunata, greater than 26 mm. The Activity in the data set on Klebsiella pneumoniae is listed as greater than 20 mm.

Turning to `CCN1CCN(C(=O)N[C@@H](Cc2ccccc2)C(=O)N[C@H](/C=C/S(=O)(=O)c2ccccc2)CCc2ccccc2)CC1`, the IC50 with SARS-CoV and in the data set on Ebolavirus was 0.04 nM each time.

For `CC(C)N1CCN(C(=O)N[C@@H](Cc2ccccc2)C(=O)N[C@H](/C=C/S(=O)(=O)c2ccccc2)CCc2ccccc2)CC1`, the IC50 with SARS-CoV and in the data set on Ebolavirus was 0.04 nM each time.

`O=S(=O)(F)/C=C/c1ccc2ccccc2c1` displayed an IC50 in data set [7] of less than 1000 nM.

For the compound `CC(=O)N1CCN(c2ccc(OCC3COC(Cn4ccnc4)(c4ccc(Cl)cc4Cl)O3)cc2)CC1` (centres undefined) [KETOCONAZOLE], the Activity with Fusarium solani, with Aspergillus niger and in the data set on Curvularia lunata was greater than 36 mm in each case.

Consider `CC(=O)c1ccc(/C(=C\C(F)(F)F)S(=O)(=O)c2ccccc2)cc1`, for which the IC50 in data set [10] came out at 400 nM; in the data set with ES-2, 400 nM; with K562, 200 nM. The same compound displayed an IC50 at 48 h in data set [11] of 200 nM.

`O=c1oc2ccc([N+](=O)[O-])cc2cc1S(=O)(=O)Cc1ccc(F)cc1` displayed an IC50 in the data set on HeLa [9] of 18100 nM. The inhibition – broadly, how much of the control response was suppressed – in the data set filed under Homo sapiens was 50%.

Take `O=c1[nH]c(=O)n([C@H]2C[C@H](O)[C@@H](CO)O2)cc1/C=C/Br` [BRIVUDINE]: the EC50 with Human alphaherpesvirus 3 was found to be 20 nM.

`O=c1oc2ccc(Br)cc2cc1S(=O)(=O)Cc1ccc(F)cc1`: in the data set with HeLa [9], the IC50 amounted to 29300 nM. Moreover, in the data set listed under Homo sapiens, the inhibition was found to be 50%.

For the origin of these results see ChEMBL document CHEMBL5126541, “Recent applications of vinyl sulfone motif in drug design and discovery” (Eur J Med Chem, 2022).
